Our source for the IC50 values is US9902722B2, “Biaryl kinase inhibitors” (BRISTOL-MYERS SQUIBB COMPANY, priority 2014, dated 2018).

Structures are written as SMILES.

The target in the assay is GST-Xa-hAAK1 (Homo sapiens (Human), UniProt Q2M2I8). The experiment in a line: AAK1 Kinase Assay.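 Further: each compound tested across an eleven-point concentration series, with IC50 obtained through non-linear regression fitting.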 Type of assay: biochemical. To be noted: bacterially expressed GST-Xa-hAAK1 3.5 nM; ATP 22 μM; peptide substrate 1.5 μM; 3 hours at room temperature; Caliper LabChip 3000.
GST-Xa-hAAK1, sequence (Q2M2I8 whole entry): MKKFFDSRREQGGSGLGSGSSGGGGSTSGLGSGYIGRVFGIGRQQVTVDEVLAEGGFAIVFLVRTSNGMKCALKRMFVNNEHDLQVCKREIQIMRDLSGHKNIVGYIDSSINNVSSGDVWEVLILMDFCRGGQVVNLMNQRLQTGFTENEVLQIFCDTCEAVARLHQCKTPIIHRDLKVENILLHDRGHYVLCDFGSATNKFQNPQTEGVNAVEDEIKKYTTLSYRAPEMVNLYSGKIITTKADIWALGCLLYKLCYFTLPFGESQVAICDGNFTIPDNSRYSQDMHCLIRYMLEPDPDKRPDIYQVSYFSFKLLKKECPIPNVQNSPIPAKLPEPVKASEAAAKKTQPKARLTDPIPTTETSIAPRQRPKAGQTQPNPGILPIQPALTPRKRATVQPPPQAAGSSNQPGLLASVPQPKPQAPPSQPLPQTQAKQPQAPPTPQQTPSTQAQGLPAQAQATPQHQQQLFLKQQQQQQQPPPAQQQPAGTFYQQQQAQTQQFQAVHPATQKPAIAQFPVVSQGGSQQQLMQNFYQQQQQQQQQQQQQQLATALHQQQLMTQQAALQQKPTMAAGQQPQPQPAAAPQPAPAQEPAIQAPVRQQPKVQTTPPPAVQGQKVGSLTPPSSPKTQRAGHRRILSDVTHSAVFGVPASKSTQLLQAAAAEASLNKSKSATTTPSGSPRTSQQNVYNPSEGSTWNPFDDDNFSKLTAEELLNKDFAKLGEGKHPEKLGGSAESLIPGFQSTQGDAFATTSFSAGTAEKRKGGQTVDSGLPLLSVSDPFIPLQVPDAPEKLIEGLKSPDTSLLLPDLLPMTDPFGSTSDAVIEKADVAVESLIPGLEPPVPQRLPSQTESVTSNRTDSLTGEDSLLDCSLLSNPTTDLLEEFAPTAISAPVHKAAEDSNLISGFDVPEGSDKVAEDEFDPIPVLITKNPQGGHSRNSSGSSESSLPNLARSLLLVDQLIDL
What is called IC50 is the point on the concentration scale where inhibition reaches its midpoint. A low value points to greater potency. The molecule `CC(C)C[C@](C)(N)COc1cnc(-c2ccnc3ccccc23)cc1Cl` [Example 236, (S)-1-((4-chloro-6-(quinolin-4-yl)pyridin-3-yl)oxy)-2,4-dimethylpentan-2-amine] yielded an IC50 of 0.98 nM. This lies in the sub-nanomolar range. `Cc1nccc(-c2ccc(OC[C@@](C)(N)CC(C)C)c(C#N)c2)c1F` [Example 103, (S)-2-((2-amino-2,4-dimethylpentyl)oxy)-5-(3-fluoro-2-methylpyridin-4-yl)benzonitrile] came in with an IC50 of 0.68 nM.

In turn, `Cc1nc(-c2ccnc3ccc(F)cc23)ccc1OC[C@@](C)(N)CC(C)C` [Example 138, (S)-1-((6-(6-fluoroquinolin-4-yl)-2-methylpyridin-3-yl)oxy)-2,4-dimethylpentan-2-amine] displayed an IC50 of 35 nM.

In turn, `COC(=O)Nc1cc(-c2ncc(OC[C@@](C)(N)CC(C)C)cn2)ccn1` [Example 210, (S)-methyl (4-(5-((2-amino-2,4-dimethylpentyl)oxy)pyrimidin-2-yl)pyridin-2-yl)carbamate] gave an IC50 of 79 nM. Against the preceding molecule, the IC50 is about 2.3-fold higher.

`CC(C)C[C@](C)(N)COc1ccc(-c2ccnc(Cl)c2)nc1C(F)F` [Example 158, (S)-1-((2′-chloro-6-(difluoromethyl)-[2,4′-bipyridin]-5-yl)oxy)-2,4-dimethylpentan-2-amine] displayed an IC50 of 5.4 nM. For `COC(=O)Nc1cc(-c2ccc(OC[C@@](C)(N)CC(C)C)c(C#N)c2)ccn1` [Example 22, (S)-methyl (4-(4-((2-amino-2,4-dimethylpentyl)oxy)-3-cyanophenyl)pyridin-2-yl)carbamate], the IC50 stood at 0.65 nM. Molecule `CC(C)C[C@](C)(N)COc1ccc(-c2ccnc(C(F)F)c2)cc1C#N` [Example 36, (S)-2-((2-amino-2,4-dimethylpentyl)oxy)-5-(2-(difluoromethyl)pyridin-4-yl)benzonitrile] showed an IC50 of 0.89 nM. The IC50 values of the last two molecules are within 1.5-fold of each other. Take `COC(=O)Nc1cc(-c2ccc(OC[C@@](C)(N)CC(C)C)c(Cl)n2)ccn1` [Example 66, (S)-methyl (5-((2-amino-2,4-dimethylpentyl)oxy)-6-chloro-[2,4′-bipyridin]-2′-yl)carbamate]: the IC50 turned out to be 0.65 nM. Take `CC(C)C[C@](C)(N)COc1ncc(-c2ccnc3ccc(F)cc23)cc1Cl` [Example 191, (S)-1-((3-chloro-5-(6-fluoroquinolin-4-yl)pyridin-2-yl)oxy)-2,4-dimethylpentan-2-amine]: the midpoint of inhibition, the IC50, lay at 0.99 nM. As for `CC(C)C[C@](C)(N)COc1ccc(-c2ccnc3cc(F)cc(F)c23)nc1C(F)F` [Example 129], the figure is 1.4 nM; as for `CC(C)C[C@](C)(N)COc1ccc(-c2ccncc2F)cc1C(F)(F)F` [Example 47, (S)-1-(4-(3-fluoropyridin-4-yl)-2-(trifluoromethyl)phenoxy)-2,4-dimethylpentan-2-amine], 0.77 nM; as for `CC(C)C[C@](C)(N)COc1cnc(-c2ccnc3cc(F)ccc23)cc1Cl` [Example 241, (S)-1-((4-chloro-6-(7-fluoroquinolin-4-yl)pyridin-3-yl)oxy)-2,4-dimethylpentan-2-amine], 0.86 nM. The same measure for `COC(=O)Nc1cc(-c2ccc(OC[C@](N)(CF)CC(C)C)c(C(F)F)n2)ccn1` [Example 179, (S)-methyl (5-((2-amino-2-(fluoromethyl)-4-methylpentyl)oxy)-6-(difluoromethyl)-[2,4′-bipyridin]-2′-yl)carbamate]: 2 nM; for `COC(=O)Nc1cc(-c2ccc(OCC(C)(N)CC(C)C)c(Cl)c2)ccn1` (centres unmarked) [Example 29, methyl (4-(4-((2-amino-2,4-dimethylpentyl)oxy)-3-chlorophenyl)pyridin-2-yl)carbamate]: 0.67 nM; for `Cc1nccc(-c2ccc(OC[C@@](C)(N)CC(C)C)c(C(F)(F)F)c2)c1C(=O)O` [Example 111, (S)-4-(4-((2-amino-2,4-dimethylpentyl)oxy)-3-(trifluoromethyl)phenyl)-2-methylnicotinic acid]: 650 nM. Molecule `CC(C)C[C@](C)(N)COc1cnc(-c2ccnc3cc(F)cc(F)c23)cc1C(F)F` [Example 130, (S)-1-((4-(difluoromethyl)-6-(5,7-difluoroquinolin-4-yl)pyridin-3-yl)oxy)-2,4-dimethylpentan-2-amine] had an IC50 of 1.4 nM. Consider `COC(=O)Nc1cc(-c2ccc(OC[C@@](C)(N)CC(C)C)c(F)c2)ccn1` [Example 28, (S)-methyl (4-(4-((2-amino-2,4-dimethylpentyl)oxy)-3-fluorophenyl)pyridin-2-yl)carbamate], for which the 50% inhibitory concentration (IC50) stood at 1.2 nM. As to `CC(C)C[C@](C)(N)COc1ncc(-c2ccnc3cc(Cl)ccc23)cc1C(F)F` [Example 197, (S)-1-((5-(7-chloroquinolin-4-yl)-3-(difluoromethyl)pyridin-2-yl)oxy)-2,4-dimethylpentan-2-amine], the IC50 was 0.31 nM.

Molecule `CC(C)C[C@](C)(N)COc1ccc(-c2ccnc(F)c2Cl)cc1C(F)(F)F` [Example 39, (S)-1-(4-(3-chloro-2-fluoropyridin-4-yl)-2-(trifluoromethyl)phenoxy)-2,4-dimethylpentan-2-amine] came in with an IC50 of 3.2 nM. As to `CC(C)C[C@](C)(N)COc1ccc(-c2ccnc(Cl)c2F)nc1C(F)F` [Example 159, (S)-1-((2′-chloro-6-(difluoromethyl)-3′-fluoro-[2,4′-bipyridin]-5-yl)oxy)-2,4-dimethylpentan-2-amine], the IC50 turned out to be 1.5 nM.

In turn, `COC(=O)Nc1nccc(-c2ccc(OC[C@@](C)(N)CC(C)C)c(C#N)c2)c1F` [Example 100, (S)-methyl (4-(4-((2-amino-2,4-dimethylpentyl)oxy)-3-cyanophenyl)-3-fluoropyridin-2-yl)carbamate] returned an IC50 of 6.8 nM.

Molecule `Cc1cc(-c2ccnc3cc(C#N)ccc23)cnc1OC[C@@](C)(N)CC(C)C` [Example 96, (S)-4-(6-((2-amino-2,4-dimethylpentyl)oxy)-5-methylpyridin-3-yl)quinoline-7-carbonitrile] had an IC50 of 3 nM. This IC50 is about 2.3-fold lower than that of the molecule before. As for `CC(C)C[C@](C)(N)COc1ccc(-c2ccnc(C(F)F)c2)cc1C(F)F` [Example 37, (S)-1-(2-(difluoromethyl)-4-(2-(difluoromethyl)pyridin-4-yl)phenoxy)-2,4-dimethylpentan-2-amine], the figure is 0.51 nM. On to `Cc1cc(-c2ccnc(C(F)F)c2)ncc1OC[C@@](C)(N)CC(C)C` [Example 125, (S)-1-((2′-(difluoromethyl)-4-methyl-[2,4′-bipyridin]-5-yl)oxy)-2,4-dimethylpentan-2-amine], for which half-maximal inhibition (IC50) required 1.6 nM. This IC50 lies about 3.1-fold higher than the previous one. In turn, `CC(C)C[C@](C)(N)COc1ncc(-c2ccnc(Cl)c2)cc1C(F)F` [Example 193, (S)-1-((2′-chloro-5-(difluoromethyl)-[3,4′-bipyridin]-6-yl)oxy)-2,4-dimethylpentan-2-amine] showed an IC50 of 2.9 nM. In turn, `CC(=O)Nc1cc(-c2ccc(OC[C@@H](N)CC(C)C)c(C(F)(F)F)c2)ccn1` [Example 5, (S)—N-(4-(4-((2-amino-4-methylpentyl)oxy)-3-(trifluoromethyl)phenyl)pyridin-2-yl)acetamide] displayed an IC50 of 0.5 nM. `Cc1cc(-c2ccc(OC[C@@](C)(N)CC(C)C)c(S(C)(=O)=O)c2)ccn1` [Example 114, (S)-2,4-dimethyl-1-(4-(2-methylpyridin-4-yl)-2-(methylsulfonyl)phenoxy)pentan-2-amine] gave an IC50 of 1400 nM.

The molecule `Cc1cc(-c2cc(C)c(OC[C@@](C)(N)CC(C)C)cn2)ccn1` [Example 228, (S)-1-((2′,4-dimethyl-[2,4′-bipyridin]-5-yl)oxy)-2,4-dimethylpentan-2-amine] showed an IC50 of 22 nM. `Cc1cc(-c2cnc(OC[C@@](C)(N)CC(C)C)c(C(F)F)c2)ccn1` [Example 194, (S)-1-((5-(difluoromethyl)-2′-methyl-[3,4′-bipyridin]-6-yl)oxy)-2,4-dimethylpentan-2-amine] came in with an IC50 of 1.5 nM.

The molecule `Cc1cc(-c2cc(C(F)F)c(OC[C@](N)(CF)CC(C)C)cn2)ccn1` [Example 187, (S)-1-((4-(difluoromethyl)-2′-methyl-[2,4′-bipyridin]-5-yl)oxy)-2-(fluoromethyl)-4-methylpentan-2-amine] registered an IC50 of 2.2 nM. The IC50 values of the last two molecules are within 1.5-fold of each other.

With `CC(C)C[C@](N)(CF)COc1cnc(-c2ccnc(C(F)F)c2)cc1C(F)F` [Example 186, (R)-1-((2′,4-bis(difluoromethyl)-[2,4′-bipyridin]-5-yl)oxy)-2-(fluoromethyl)-4-methylpentan-2-amine], the IC50 was 18 nM. `Cc1cc(-c2ccc(OC[C@@](C)(N)CC(C)C)c(F)c2)ccn1` [Example 91, (S)-1-(2-fluoro-4-(2-methylpyridin-4-yl)phenoxy)-2,4-dimethylpentan-2-amine] gave an IC50 of 12.1 nM. With `CC(C)C[C@](C)(N)COc1ccc(-c2ccnc3cc(F)ccc23)nc1C(F)F` [Example 128, (S)-1-((2-(difluoromethyl)-6-(7-fluoroquinolin-4-yl)pyridin-3-yl)oxy)-2,4-dimethylpentan-2-amine], the IC50 came out at 3.5 nM. Against the preceding molecule, the IC50 is about 3.5-fold lower. In turn, `Cc1cc(-c2ccnc3cc(F)ccc23)cnc1OC[C@@](C)(N)CC(C)C` [Example 76, (S)-1-((5-(7-fluoroquinolin-4-yl)-3-methylpyridin-2-yl)oxy)-2,4-dimethylpentan-2-amine] had an IC50 of 1.7 nM. With `COC(=O)Nc1cc(-c2ccc(OC[C@@](N)(CF)CC(C)C)c(C(F)F)n2)ccn1` [Example 180, (R)-methyl (5-((2-amino-2-(fluoromethyl)-4-methylpentyl)oxy)-6-(difluoromethyl)-[2,4′-bipyridin]-2′-yl)carbamate], the IC50 was found to be 24 nM. This IC50 is about 14-fold higher than that of the molecule before. Take `CC(C)C[C@](C)(N)COc1ccc(-c2ccnc3[nH]ccc23)cc1C(F)(F)F` [Example 84, (S)-1-(4-(1H-pyrrolo[2,3-b]pyridin-4-yl)-2-(trifluoromethyl)phenoxy)-2,4-dimethylpentan-2-amine]: half-maximal inhibition (IC50) required 2.2 nM. The molecule `CC(C)C[C@](C)(N)COc1ccc(-c2ccnc3ccc(F)cc23)nc1C(F)F` [Example 127, (S)-1-((2-(difluoromethyl)-6-(6-fluoroquinolin-4-yl)pyridin-3-yl)oxy)-2,4-dimethylpentan-2-amine] registered an IC50 of 6.2 nM. With `COC(=O)Nc1cc(-c2ccc(OCC(C)(N)CC(C)C)cn2)ccn1` (centres unmarked) [Example 63, methyl (5-((2-amino-2,4-dimethylpentyl)oxy)-[2,4′-bipyridin]-2′-yl)carbamate], inhibition was half-maximal at 24 nM (IC50).
